Patent US8426447B2, “Spiro-tricyclic ring compounds as beta-secretase modulators and methods of use” (Amgen Inc., priority 2008, dated 2013)
Read-outs that look alike come from different tables or passages of the source.

Target: BACE1 (Homo sapiens, UniProt P56817)
Test: In Vitro Enzymatic BACE FRET (Fluorescence Resonance Energy Transfer) Assay
Type: biochemical
Details: read-out: BACE1 FRET assay
Procedure: In Vitro Enzymatic BACE FRET (Fluorescence Resonance Energy Transfer) Assay (Enzyme Assay Data in the Example Tables I, II, III & IV) The assay buffer used in this screen is 0.05 M acetate, pH 4.2, 10% DMSO final, 100 uM genapol (which is a nonionic detergent, below its Critical Micelle Concentration). […] This assay is effectively started by the addition of FRET substrate (50 nM) and the combination is incubated for one hour. The FRET assay is terminated with by addition of Tris buffer, which raises the pH to neutrality, and the fluorescence is determined. The FRET substrate is a peptide with commercially available fluorophore and quencher, on opposite sides of the BACE cleavage site. […]

[1] = in vitro BACE FRET enzyme assay, IC50 class symbols

Sequence of BACE1 (P56817 46-501, species assumed): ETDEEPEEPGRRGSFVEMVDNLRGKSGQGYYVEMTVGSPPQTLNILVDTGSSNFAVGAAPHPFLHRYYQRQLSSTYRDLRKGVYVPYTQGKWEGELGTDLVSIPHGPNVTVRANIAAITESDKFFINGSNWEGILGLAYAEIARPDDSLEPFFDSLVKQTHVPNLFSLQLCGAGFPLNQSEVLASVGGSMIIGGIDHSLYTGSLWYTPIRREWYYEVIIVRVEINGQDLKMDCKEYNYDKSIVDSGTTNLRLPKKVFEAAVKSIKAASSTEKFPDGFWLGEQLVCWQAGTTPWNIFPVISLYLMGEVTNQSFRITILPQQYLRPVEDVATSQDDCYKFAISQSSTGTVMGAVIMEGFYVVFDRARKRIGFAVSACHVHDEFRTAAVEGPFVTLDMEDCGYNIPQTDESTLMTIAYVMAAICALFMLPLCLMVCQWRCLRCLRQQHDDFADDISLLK

NC1=N[C@@]2(CO1)c1cc(C#CC3CC3)ccc1Oc1ccc(OCC3CCCO3)cc12 (stereo partly drawn) [Example 103, (4S)-2′-(cyclopropylethynyl)-7′-(tetrahydro-2-furanylmethoxy)spiro[1,3-oxazole-4,9′-xanthen]-2-amine]
IC50 (Table II): < 100 nM

NC1=N[C@@]2(CO1)c1cc(-c3cncc(Cl)c3)ccc1Oc1cnc(-c3cccnc3)cc12 [compound 303]
IC50 [1]: < 100 nM

COc1ccc2c(c1)[C@@]1(COC(N)=N1)c1cc(N3CCOCC3)cc(F)c1O2 [compound 304]
IC50 [1]: 100 to 1000 nM

Cc1cc(-c2cc3c(cn2)Oc2ccc(-c4ccc(F)nc4)cc2[C@@]32COC(N)=N2)ccn1 [compound 313]
IC50 [1]: < 100 nM

NC1=N[C@]2(CO1)c1cc(C#CC3CCCC3)ccc1Oc1ccc(-c3cncnc3)cc12 [Example 95, (4R)-2′-(cyclopentylethynyl)-7′-(5-pyrimidinyl)spiro[1,3-oxazole-4,9′-xanthen]-2-amine]
IC50 (Table II): < 100 nM

NC1=N[C@@]2(CO1)c1cc(-c3cccc(Cl)c3)ccc1Oc1ncc(C3=CCOCC3)cc12 [compound 322]
IC50 [1]: < 100 nM

Cc1ccc2c(c1)Oc1ccc(-c3ccc(OC(F)(F)F)cc3)cc1C21COC(N)=N1 (stereo not shown) [Example 36, 6′-methyl-2′-(4-(trifluoromethoxy)phenyl)spiro[1,3-oxazole-4,9′-xanthen]-2-amine]
IC50 (Table 1): > 5000 nM

NC1=N[C@]2(CO1)c1cc(OC[C@@H]3CC3(F)F)ccc1Oc1ccc(-c3cncnc3)cc12 [Example 97, (4S)-2′-(((1S)-2,2-difluorocyclopropyl)methoxy)-7′-(5-pyrimidinyl)spiro[1,3-oxazole-4,9′-xanthen]-2-amine]
IC50 (Table II): < 100 nM

CC(C)(C)C[C@H](O)c1ccc2c(c1)[C@]1(COC(N)=N1)c1cc(-c3cncnc3)ccc1O2 [Example 49, (1S)-1-((4S)-2-amino-7′-(5-pyrimidinyl)spiro[1,3-oxazole-4,9′-xanthen]-2′-yl)-3,3-dimethyl-1-butanol]
IC50 (Table II): < 100 nM

Cc1ccc2c(c1)Oc1ccc(-c3ccccc3C)cc1C21COC(N)=N1 (stereo not shown) [Example 34, 6′-methyl-2′-(2-methylphenyl)spiro[1,3-oxazole-4,9′-xanthen]-2-amine]
IC50 (Table 1): > 5000 nM

Cc1cncc(-c2ccc3c(c2)[C@@]2(COC(N)=N2)c2cc(-c4ccnc(C)c4)ncc2O3)c1 [compound 307]
IC50 [1]: < 100 nM

CC1(C#Cc2cnc3c(c2)[C@]2(COC(N)=N2)c2cc(-c4cccc(Cl)c4)ccc2O3)COC1 [compound 314]
IC50 [1]: < 100 nM

NC1=N[C@@]2(CO1)c1cc(-c3c(F)ccnc3F)ccc1Oc1ncc(C3=CCOCC3)cc12 [compound 321]
IC50 [1]: < 100 nM

CC(C)(C)C#Cc1cnc2c(c1)[C@]1(COC(N)=N1)c1cc(OCC(C)(C)C#N)ccc1O2 [compound 319]
IC50 [1]: < 100 nM

NC1=N[C@]2(CO1)c1cc(OC[C@H]3CC3(F)F)ccc1Oc1ccc(-c3cncnc3)cc12 [Example 98, (4S)-2′-(((1R)-2,2-difluorocyclopropyl)methoxy)-7′-(5-pyrimidinyl)spiro[1,3-oxazole-4,9′-xanthen]-2-amine]
IC50 (Table II): < 100 nM

COc1ccc(-c2cnc3c(c2)[C@]2(COC(N)=N2)c2cc(OCC(C)(C)C#N)ccc2O3)cn1 [compound 341]
IC50 [1]: < 100 nM

CC1(C)CCN(c2cnc3c(c2)[C@]2(COC(N)=N2)c2cc(-c4cccnc4F)ccc2O3)C1 [compound 316]
IC50 [1]: < 100 nM

CC(C)(C)COc1cnc2c(c1)[C@]1(COC(N)=N1)c1cc(C#CC3(C)COC3)ccc1O2 [compound 323]
IC50 [1]: < 100 nM

Cc1cncc(-c2ccc3c(c2)[C@@]2(COC(N)=N2)c2cc(-c4ccncc4)ncc2O3)c1 [compound 305]
IC50 [1]: < 100 nM

NC1=NC2(CO1)c1cc(Cl)ccc1Oc1ccc(-c3cncnc3)cc12 (stereo not shown) [Example 13, 2′-chloro-7′-(5-pyrimidinyl)spiro[1,3-oxazole-4,9′-xanthen]-2-amine]
IC50 (Table 1): 100 to 1000 nM

NC1=N[C@@]2(CO1)c1cc(-c3ccc(F)nc3)ccc1Oc1cnc(Cl)cc12 [compound 310]
IC50 [1]: 100 to 1000 nM

NC1=N[C@@]2(CO1)c1cc(-c3cncc(Cl)c3)ccc1Oc1cnc(C3=CCOCC3)cc12 [compound 309]
IC50 [1]: < 100 nM

CC(C)(C#Cc1cnc2c(c1)[C@]1(COC(N)=N1)c1cc(-c3cccnc3)ccc1O2)N1CCC1 [compound 320]
IC50 [1]: < 100 nM

Cc1cccc(-c2ccc3c(c2)C2(COC(N)=N2)c2ccc(C)cc2O3)c1 (stereo not shown) [Example 33, 6′-methyl-2′-(3-methylphenyl)spiro[1,3-oxazole-4,9′-xanthen]-2-amine]
IC50 (Table 1): > 5000 nM

CC(C)(C)C#Cc1cnc2c(c1)[C@]1(COC(N)=N1)c1cc(-c3cccc(C#N)c3)ccc1O2 [compound 318]
IC50 [1]: < 100 nM

NC1=N[C@]2(CO1)c1cc(OC[C@@H]3CCCO3)ccc1Oc1ccc(-c3cncnc3)cc12 [Example 105, (4S)-2′-(5-pyrimidinyl)-7′-((2S)-tetrahydro-2-furanylmethoxy)spiro[1,3-oxazole-4,9′-xanthen]-2-amine]
IC50 (Table II): < 100 nM

Cc1cncc(-c2ccc3c(c2)[C@@]2(COC(N)=N2)c2cc(C4CCOCC4)ncc2O3)c1 [compound 308]
IC50 [1]: < 100 nM

NC1=N[C@@]2(CO1)c1cc(-c3cncc(Cl)c3)ccc1Oc1cnc(-c3ccncc3)cc12 [compound 302]
IC50 [1]: < 100 nM

Cc1ccc(-c2cnc3c(c2)[C@]2(COC(N)=N2)c2cc(-c4cccnc4F)ccc2O3)cn1 [compound 339]
IC50 [1]: < 100 nM

NC1=N[C@@]2(CO1)c1cc(-c3cccc(Cl)c3)ccc1Oc1ncc(-c3ccncc3)cc12 [compound 345]
IC50 [1]: < 100 nM

NC1=N[C@]2(CO1)c1cc(C(=O)CC3CCCC3)ccc1Oc1ccc(-c3cncnc3)cc12 [Example 102, 1-((4S)-2-amino-7′-(5-pyrimidinyl)spiro[1,3-oxazole-4,9′-xanthen]-2′-yl)-2-cyclopentylethanone]
IC50 (Table II): < 100 nM

NC1=N[C@@]2(CO1)c1cc(-c3ccc(F)nc3)ccc1Oc1cnc(-c3ccnc(F)c3)cc12 [compound 311]
IC50 [1]: < 100 nM

CC(C)(C)C#Cc1cnc2c(c1)[C@]1(COC(N)=N1)c1cc(-c3cncc(C#N)c3)ccc1O2 [compound 317]
IC50 [1]: < 100 nM

NC1=N[C@]2(CO1)c1cc(OC[C@H]3CCCO3)ccc1Oc1ccc(-c3cncnc3)cc12 [Example 106, (4S)-2′-(5-pyrimidinyl)-7′-((2R)-tetrahydro-2-furanylmethoxy)spiro[1,3-oxazole-4,9′-xanthen]-2-amine]
IC50 (Table II): < 100 nM

COc1ccc(-c2cnc3c(c2)[C@]2(COC(N)=N2)c2cc(-c4cccnc4F)ccc2O3)cn1 [compound 344]
IC50 [1]: < 100 nM

CC(C)(C#N)COc1ccc2c(c1)[C@@]1(COC(N)=N1)c1cc(-c3ccc(C#N)cc3)cnc1O2 [compound 340]
IC50 [1]: < 100 nM

Cc1cncc(-c2ccc3c(c2)[C@@]2(COC(N)=N2)c2cc(-c4cccnc4)ncc2O3)c1 [compound 306]
IC50 [1]: < 100 nM

CC1(C#Cc2cnc3c(c2)[C@]2(COC(N)=N2)c2cc(-c4cccnc4)ccc2O3)COC1 [compound 315]
IC50 [1]: < 100 nM

COc1ccc2c(c1)[C@@]1(COC(N)=N1)c1cc(-c3cncnc3)ccc1O2 [Example 31, (4R)-2′-methoxy-7′-(5-pyrimidinyl)spiro[1,3-oxazole-4,9′-xanthen]-2-amine]
IC50 (Table 1): > 5000 nM

NC1=N[C@]2(CO1)c1cc(C#CC3CC3)ccc1Oc1ccc(-c3cncnc3)cc12 [Example 101, (4R)-2′-(cyclopropylethynyl)-7′-(5-pyrimidinyl)spiro[1,3-oxazole-4,9′-xanthen]-2-amine]
IC50 (Table II): < 100 nM
